Reference: the NIST ThermoML archive (doi:10.1016/j.jct.2012.03.027)

Experiments:
[1] = Molar enthalpy of transition or fusion; details: Crystal; DSC
[2] = for vapor or sublimation pressure: Closed cell (Static) method; for Triple point temperature: DTA
[3] = molar heat capacity at constant pressure; details: 298.15 K, 101.33 kPa, Drop calorimetry

OCC(F)(F)C(F)(F)C(F)(F)C(F)(F)C(F)(F)C(F)(F)C(F)(F)C(F)(F)C(F)(F)C(F)(F)F [1H,1H-perfluoroundecan-1-ol]
Details | Molar enthalpy of transition or fusion [kcal/mol]
[1] | 5.35

[2], Crystal
Details | vapor or sublimation pressure [kPa]
310.53 K | 0.00219
313.02 K | 0.00299
315.51 K | 0.00402
318 K | 0.00537
320.48 K | 0.00715
323 K | 0.00968
325.47 K | 0.01321
327.95 K | 0.01724
330.42 K | 0.02207
332.87 K | 0.02909
335.42 K | 0.03815
337.85 K | 0.04977
340.35 K | 0.06415
342.81 K | 0.08275
345.3 K | 0.1064
347.8 K | 0.1361

Details | Triple point temperature [K]
[2], Crystal | 374

OCC(F)(F)C(F)(F)C(F)(F)C(F)(F)C(F)(F)C(F)(F)C(F)(F)C(F)(F)C(F)(F)F [1H,1H-perfluoro-1-decanol]
Details | Molar enthalpy of transition or fusion [kcal/mol]
[1] | 3.8

[2], Crystal
Details | vapor or sublimation pressure [kPa]
303.92 K | 0.00452
308 K | 0.00755
312.98 K | 0.01315
318.07 K | 0.02289
323.07 K | 0.03765
327.88 K | 0.06457
332.84 K | 0.1045
337.79 K | 0.1714
342.75 K | 0.2677
347.71 K | 0.414
352.65 K | 0.6247
355.65 K | 0.8008
358.15 K | 0.97

Details | Triple point temperature [K]
[2], Crystal | 358.5

OCC(F)(F)C(F)(F)C(F)(F)C(F)(F)C(F)(F)C(F)(F)F [2,2,3,3,4,4,5,5,6,6,7,7,7-tridecafluoro-1-heptanol]
Details | molar heat capacity at constant pressure [J/K/mol]
[3], Liquid | 476.8

[2], Liquid
Details | vapor or sublimation pressure [kPa]
275.55 K | 0.01786
278.02 K | 0.02308
280.53 K | 0.03001
282.99 K | 0.03804
285.49 K | 0.04858
287.97 K | 0.06227
290.46 K | 0.07837
292.95 K | 0.09912
295.45 K | 0.1247
297.97 K | 0.1587
300.43 K | 0.1946
302.94 K | 0.2431
305.4 K | 0.294
307.91 K | 0.3632
310.39 K | 0.4344
312.88 K | 0.5339
315.35 K | 0.6248
317.87 K | 0.7553

OCC(F)(F)C(F)(F)C(F)(F)C(F)(F)C(F)(F)C(F)(F)C(F)(F)C(F)(F)F [2,2,3,3,4,4,5,5,6,6,7,7,8,8,9,9,9-heptadecafluoro-1-nonanol]
Details | Molar enthalpy of transition or fusion [kcal/mol]
[1] | 3.97

[2]
Details | vapor or sublimation pressure [kPa]
275.71 K, Crystal | 0.00048
278.17 K, Crystal | 0.00067
283.16 K, Crystal | 0.00128
288.15 K, Crystal | 0.0025
293.14 K, Crystal | 0.00477
298.11 K, Crystal | 0.00866
303.13 K, Crystal | 0.01568
308.1 K, Crystal | 0.02727
313.09 K, Crystal | 0.04767
318.06 K, Crystal | 0.07933
323.03 K, Crystal | 0.13
342.99 K, Liquid | 0.8017
344 K, Liquid | 0.8571
345.48 K, Liquid | 0.9447
347.97 K, Liquid | 1.11
350.45 K, Liquid | 1.3
351.45 K, Liquid | 1.383

Details | Triple point temperature [K]
[2], Crystal | 342.2

OCC(F)(F)C(F)(F)C(F)(F)C(F)(F)C(F)(F)C(F)(F)C(F)(F)F [2,2,3,3,4,4,5,5,6,6,7,7,8,8,8-pentadecafluoro-1-octanol]
Crystal
Details | Triple point temperature [K] | molar heat capacity at constant pressure [J/K/mol]
[2] | 318.2 | –
[3] | – | 468.6

Details | Molar enthalpy of transition or fusion [kcal/mol]
[1] | 2.84

[2]
Details | vapor or sublimation pressure [kPa]
268.27 K, Crystal | 0.00104
273.24 K, Crystal | 0.00201
278.21 K, Crystal | 0.00388
283.17 K, Crystal | 0.00714
288.15 K, Crystal | 0.01272
293.15 K, Crystal | 0.02273
295.64 K, Crystal | 0.03033
298.14 K, Crystal | 0.03911
300.61 K, Crystal | 0.05177
303.13 K, Crystal | 0.06648
305.62 K, Crystal | 0.08724
308.1 K, Crystal | 0.1113
310.56 K, Crystal | 0.1412
313.08 K, Crystal | 0.1815
315.52 K, Crystal | 0.2288
318.05 K, Crystal | 0.2936
320.52 K, Liquid | 0.3615
323.01 K, Liquid | 0.4351
325.52 K, Liquid | 0.524
328.01 K, Liquid | 0.6236
330.49 K, Liquid | 0.7457
332.97 K, Liquid | 0.871
335.47 K, Liquid | 1.048
337.97 K, Liquid | 1.233
339.44 K, Liquid | 1.359
